The supplement of paper PMC10307832

Assays:
Experiment in all cases: relative viability (nuclei count vs DMSO), 5 days (fraction); higher = more cells survive
HARA = test system: HARA
Outline: (§1)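 Each reported value is a median over duplicate plates. It expresses relative viability: treated-well nuclei count divided by vehicle-well nuclei count. Lung cancer cell lines in 1536-well plates were dosed by pin tool a day after seeding, alone with one drug or with a fixed anchor-drug dose plus five library-drug doses (not always all listed) in √10 steps, and nuclei were counted after 5 days.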

HCC-366 = test system: HCC-366
Outline: as §1

SK-LU-1 = test system: SK-LU-1
Outline: as §1

NCI-H1975 = test system: NCI-H1975
Outline: as §1

NCI-H1395 = test system: NCI-H1395
Outline: as §1

HCC-44 = test system: HCC-44
Outline: as §1

UMC-11 = test system: UMC-11
Outline: as §1

NCI-H1792 = test system: NCI-H1792
Outline: as §1

NCI-H2023 = test system: NCI-H2023
Outline: as §1

NCI-H661 = test system: NCI-H661
Outline: as §1

HCC-827 = test system: HCC-827
Outline: as §1

## O=C(O)CCCCC(CCSCc1ccccc1)SCc1ccccc1 (stereo not given) [CPI-613] + Nc1nc2[nH]cc(CCc3ccc(C(=O)N[C@@H](CCC(=O)O)C(=O)O)cc3)c2c(=O)[nH]1 [Pemetrexed] (partner 0.2 µM)
HARA; first compound 5 µM
  relative viability: 0.26
HARA; first compound 15.81 µM
  relative viability: 0.229
HARA; first compound 50 µM
  relative viability: 0.236
HARA; first compound 158.11 µM
  relative viability: 0.269
HARA; first compound 500 µM
  relative viability: 0.0403
HCC-366; first compound 5 µM
  relative viability: 0.135
HCC-366; first compound 15.81 µM
  relative viability: 0.152
HCC-366; first compound 50 µM
  relative viability: 0.162
HCC-366; first compound 158.11 µM
  relative viability: 0.123
HCC-366; first compound 500 µM
  relative viability: 0.0078
SK-LU-1; first compound 5 µM
  relative viability: 0.958
SK-LU-1; first compound 15.81 µM
  relative viability: 0.88
SK-LU-1; first compound 50 µM
  relative viability: 0.87
SK-LU-1; first compound 158.11 µM
  relative viability: 0.22
SK-LU-1; first compound 500 µM
  relative viability: 0.0978
NCI-H1975; first compound 5 µM
  relative viability: 0.267
NCI-H1975; first compound 15.81 µM
  relative viability: 0.293
NCI-H1975; first compound 50 µM
  relative viability: 0.286
NCI-H1975; first compound 158.11 µM
  relative viability: 0.142
NCI-H1975; first compound 500 µM
  relative viability: 0.0754
NCI-H1395; first compound 5 µM
  relative viability: 0.942
NCI-H1395; first compound 15.81 µM
  relative viability: 0.671
NCI-H1395; first compound 50 µM
  relative viability: 0.868
NCI-H1395; first compound 158.11 µM
  relative viability: 0.723
NCI-H1395; first compound 500 µM
  relative viability: 0.598
HCC-44; first compound 5 µM
  relative viability: 0.635
HCC-44; first compound 15.81 µM
  relative viability: 0.61
HCC-44; first compound 50 µM
  relative viability: 0.592
HCC-44; first compound 158.11 µM
  relative viability: 0.622
HCC-44; first compound 500 µM
  relative viability: 0.53
UMC-11; first compound 5 µM
  relative viability: 0.703
UMC-11; first compound 15.81 µM
  relative viability: 0.8
UMC-11; first compound 50 µM
  relative viability: 0.758
UMC-11; first compound 158.11 µM
  relative viability: 0.36
UMC-11; first compound 500 µM
  relative viability: 0.115
NCI-H1792; first compound 5 µM
  relative viability: 0.744
NCI-H1792; first compound 15.81 µM
  relative viability: 0.63
NCI-H1792; first compound 50 µM
  relative viability: 0.636
NCI-H1792; first compound 158.11 µM
  relative viability: 0.109
NCI-H1792; first compound 500 µM
  relative viability: 0.0742
NCI-H2023; first compound 5 µM
  relative viability: 0.233
NCI-H2023; first compound 15.81 µM
  relative viability: 0.2
NCI-H2023; first compound 50 µM
  relative viability: 0.175
NCI-H2023; first compound 158.11 µM
  relative viability: 0.0911
NCI-H2023; first compound 500 µM
  relative viability: 0.0103
NCI-H661; first compound 5 µM
  relative viability: 0.887
NCI-H661; first compound 15.81 µM
  relative viability: 0.921
NCI-H661; first compound 50 µM
  relative viability: 0.863
NCI-H661; first compound 158.11 µM
  relative viability: 0.557
NCI-H661; first compound 500 µM
  relative viability: 0.131
HCC-827; first compound 5 µM
  relative viability: 0.251
HCC-827; first compound 15.81 µM
  relative viability: 0.268
HCC-827; first compound 50 µM
  relative viability: 0.276
HCC-827; first compound 158.11 µM
  relative viability: 0.267
HCC-827; first compound 500 µM
  relative viability: 0.273
